Data: patent US5380746A, “Bis-(1H-indol-3-YL)-maleinimide derivatives, processes for the preparation thereof and pharmaceutical compositions containing them” (Goedecke Aktiengesellschaft, priority 1989, dated 1995)

Columns and labels:
Type in all cases: biochemical
A-kinase = A-kinase (Homo sapiens, UniProt P17612); assay: inhibition of the A-kinase; details: read-out: IC values of the inhibition of the A-kinase
G-kinase = target: T1, G-kinase (Homo sapiens, UniProt Q13976); assay: inhibition of the G-kinase; details: read-out: IC values of the inhibition of the G-kinase
T1 sequence (Q13976 1-671): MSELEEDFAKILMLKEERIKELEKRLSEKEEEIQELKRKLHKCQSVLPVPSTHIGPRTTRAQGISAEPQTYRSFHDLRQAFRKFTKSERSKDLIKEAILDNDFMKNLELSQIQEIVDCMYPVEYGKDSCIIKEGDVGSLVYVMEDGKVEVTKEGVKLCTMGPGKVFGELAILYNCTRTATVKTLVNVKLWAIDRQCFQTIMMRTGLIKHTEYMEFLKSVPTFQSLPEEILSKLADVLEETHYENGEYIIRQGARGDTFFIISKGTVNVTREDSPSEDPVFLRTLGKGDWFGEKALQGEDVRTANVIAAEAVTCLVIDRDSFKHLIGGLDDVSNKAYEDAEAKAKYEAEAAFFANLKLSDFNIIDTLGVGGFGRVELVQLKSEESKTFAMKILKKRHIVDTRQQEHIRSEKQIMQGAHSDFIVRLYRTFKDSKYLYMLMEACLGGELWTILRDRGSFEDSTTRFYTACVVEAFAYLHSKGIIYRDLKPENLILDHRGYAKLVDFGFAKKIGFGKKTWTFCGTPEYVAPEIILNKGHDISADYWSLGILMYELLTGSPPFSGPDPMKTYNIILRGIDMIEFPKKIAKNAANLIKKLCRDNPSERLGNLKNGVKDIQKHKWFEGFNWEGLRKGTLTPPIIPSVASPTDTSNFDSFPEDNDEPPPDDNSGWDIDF

protein kinase C = assay: enzyme assay of protein kinase C; details: read-out: 50% inhibition at a concentration of, enzyme assay of protein kinase C
MLC-kinase = assay: inhibition of the MLC-kinase; details: read-out: IC values of the inhibition of the MLC-kinase

IC50 (A-kinase): 77 µM
IC50 (G-kinase): 15 µM
IC50 (protein kinase C): 0.14 µM
IC50 (MLC-kinase): 4.5 µM
SMILES: Cn1cc(C2=C(c3c[nH]c4ccccc34)C(=O)NC2=O)c2ccccc21 [Example 1, 2-(1H-Indol-3-yl)-3-(1-methyl-1H-indol-3-yl)maleinimide]
